Data: patent publication US9675629B2, “PH-responsive nanoparticle using mussel adhesive protein for drug delivery and method for preparing the same” (POSTECH ACADEMY-INDUSTRY FOUNDATION, priority 2015, dated 2017)

Test system: HeLa cells
Assay: Cellular uptake evaluation, cell imaging and flow cytometer analysis
Format: cell-based
Details: DOX 2 μg/mL
Procedure: For cellular uptake evaluation, cell imaging and flow cytometer analysis were performed. For cell imaging, free DOX and DOX-loaded mfp-1 nanoparticles (DOX concentration 2 μg/mL) were treated for 1 and 3 hours into each cell culture medium after initial cell seeding on 24-well culture plate. Before observation, cells were stained with 5 μg/mL of Hoechst 33258 (Sigma) solution for 30 minutes to clearly discriminate cell nucleus from cytosol. Cell nucleus and location of DOX were observed using fluorescence microscopy (Olympus). Cells treated by same condition with imaging procedures were collected for flow cytometry analysis after detachment by 0.25% trypsin-EDTA treatment. Fluorescence intensity of DOX in the collected cells resuspended in 1 mL PBS was examined by fluorescence scanning with 1×10^4 cells under PerCP-Cy5.5 filter (488 nm excitation and 630 nm emission). Calibration was performed using non-treated cells.

COc1cccc2c1C(=O)c1c(O)c3c(c(O)c1C2=O)C[C@@](O)(C(=O)CO)C[C@@H]3O[C@H]1C[C@H](N)[C@H](O)[C@H](C)O1 [free DOX, doxorubicin]
fluorescence intensity of DOX in cells, flow cytometry (1 and 3 hours): higher than DOX-loaded mfp-1 nanoparticles-treated cells | location of DOX in cells, fluorescence microscopy (treated for 1 hour): spread over the whole cell area
